Reference: US11642350B2, “Agent for preventing myopia, treating myopia, and/or preventing myopia progression comprising tiotropium as active ingredient” (priority 2017, dated 2023)
Where a name gives a salt, the structure may show the parent alone.

Assays:
Myopia Chick Model = test: Suppression of axial length elongation in myopia chick model (goggle-induced, intravitreal administration); format: in vivo, chicks (white leghorns); settings: 20 μL intravitreally on day 0, 2 and 4, axial length measured on day 6
Procedure: Test 1. Test About Suppression of Axial Length Elongation in Myopia Chick Model
Tiotropium bromide hydrate was dissolved in saline to prepare 0.1 mM and 10 mM tiotropium solutions.
And, atropine sulfate hydrate was dissolved in saline to prepare 100 mM atropine solution as a reference example.
As a control, saline was used.
A test tube having a diameter of 18 mm was cut off at the level of 10 mm from the bottom, and the cutting circle of the cut-off bottom part was bonded to a flat rubber packing with an adhesive agent to prepare a lens (goggle). 7-day-old chicks (white leghorns) were obtained, and the prepared goggle was attached to the right eye of each chick with an adhesive agent to induce myopia to the chicks. The left eye thereof was its control.
To each of the tiotropium administration groups, 20 μL of each prepared tiotropium solution was intravitreally administered on the day that the goggle was fixed (on day 0), on day 2, and on day 4. […]
On day 6 from the myopia induction, the axial length of right and left eyeballs was measured with a ultrasound axial length measurement ECHOSCAN US-500 (NIDEK CO., LTD.) (A-scan). The difference of axial lengths and the suppression rate of the axial length elongation were calculated by the following formulae.

Myopia Mice Model = test: Suppression of axial length elongation in myopia mice model (spectacle lens-induced, eyedrop); format: in vivo, mice (C57BL/6J); settings: 7 μL topically once a day, post-natal day 33 to 61, -15D lens, mouse
Procedure: Test 2. Test About Suppression of Axial Length Elongation in Myopia Mice Model
Tiotropium bromide hydrate and glycerin were dissolved in water for injection to prepare 0.0001% (w/v) and 0.01% (w/v) tiotropium ophthalmic solutions without adjusting pH.
In a similar way, atropine sulfate hydrate and glycerin were dissolved in water for injection to prepare 0.1% (w/v) atropine ophthalmic solution without adjusting pH. The vehicle (control) was isotonic water which was prepared with water for injection and glycerin.
Spectacle lens-induced myopia model was established by placing −15D hard lens on the right eye of mice (C57BL/6J), which was served as the experimental eye, at post-natal days 18. Briefly, a −15D lens was glued to an annulus (with 8 mm base curve) of Velcro. This mating piece was then attached to the Velcro that had been previously glued to the hair around the right experimental eye using a cyanoacrylate. An air gap of 1.5 mm existed between the back part of the lens and the anterior surface of the cornea.
Ocular biometry such as axial length measurement was done using in vivo Optical Low Coherence Interferometry (OLCI-AcMaster). The axial length was measured at post-natal days 33 and 61.
The ratio for suppressing the axial length elongation with each example was calculated by the following equation: […]
Tiotropium (at 0.0001% or 0.01%) or atropine (at 0.1%) was administered once a day post-natal day 33 until day 61 in the spectacle lens-induced myopia model. 7 μL of each drug was administered topically to the right eye in dim red light at the each day.

[1] = test system: pupil diameter of the mice; test: Evaluation of mydriatic action (pupil diameter after a single eyedrop); format: in vivo; settings: mouse; for Pupil diameter before administration (mm): before the eyedrop (baseline); for Maximum pupil diameter (mm) / Measurement time of maximum pupil diameter: single dose 5 μL to both eyes; for Maximum pupil diameter (mm): longest average among 1, 2, 4 and 24 h
Procedure: Test 3. Evaluation of Mydriatic Action
Tiotropium bromide hydrate and glycerin were dissolved in water for injection to prepare 0.01% (w/v), 0.1% (w/v), and 2% (w/v) tiotropium ophthalmic solutions without adjusting pH.
In a similar way, atropine sulfate hydrate and glycerin were dissolved in water for injection to prepare 0.01% (w/v), and 0.1% (w/v) atropine ophthalmic solutions without adjusting pH.
A single dose (5 μL) of each prepared ophthalmic solution was administered to both eyes of mice (6 eyes of 3 mice per each ophthalmic solution). Before the administration (eyedrop), and 1, 2, 4 and 24 hours after the administration, each pupil diameter of the mice was measured. The measured pupil diameters of the mice at each measurement time per each test sample were averaged to obtain each average value as each average pupil diameter. Among each average pupil diameter at each measurement time, the longest diameter was defined as the maximum pupil diameter.

[2] = 0.01% (w/v) ophthalmic solution group
[3] = 0.01% (w/v) ophthalmic solution
[4] = 0.1% (w/v) ophthalmic solution group
[5] = 0.0001% (w/v) ophthalmic solution

## CN1[C@@H]2CC[C@H]1C[C@@H](OC(=O)C(CO)c1ccccc1)C2 (some centres unmarked) [atropine, atropine sulfate hydrate]
Myopia Chick Model; 100 mM atropine solution (reference example)
  Suppression rate (%) of the axial length elongation: 83%
Myopia Mice Model; 0.1% (w/v) ophthalmic solution
  Mean (μm) change in the axial length: 111.61 μm
  Suppression rate (%) of the axial length elongation: 29.50%
[1]; [2]
  Pupil diameter before administration (mm): 0.42 mm
[1]; [3]
  Maximum pupil diameter (mm): 1.43 mm
  Measurement time of maximum pupil diameter: 1 h
[1]; [4]
  Pupil diameter before administration (mm): 0.40 mm
[1]; 0.1% (w/v) ophthalmic solution
  Maximum pupil diameter (mm): 1.96 mm
  Measurement time of maximum pupil diameter: 2 h

## C[N+]1(C)C2CC(OC(=O)C(O)(c3cccs3)c3cccs3)CC1C1OC12 (stereo not drawn) [tiotropium, (1α,2β,4β,5α,7β)-7-[(hydroxydi-2-thienylacetyl)oxy]-9,9-dimethyl-3-oxa-9-azoniatricyclo[3.3.1.0^2,4]nonane bromide monohydrate]
Myopia Chick Model; 0.1 mM solution
  Suppression rate (%) of the axial length elongation: 45%
Myopia Mice Model; [5]
  Mean (μm) change in the axial length: 135.84 μm
  Suppression rate (%) of the axial length elongation: 14.20%
Myopia Mice Model; [3]
  Mean (μm) change in the axial length: 112.95 μm
  Suppression rate (%) of the axial length elongation: 28.66%
[1]; [2]
  Pupil diameter before administration (mm): 0.36 mm
[1]; [3]
  Maximum pupil diameter (mm): 1.24 mm
  Measurement time of maximum pupil diameter: 4 h
[1]; [4]
  Pupil diameter before administration (mm): 0.43 mm
[1]; 0.1% (w/v) ophthalmic solution
  Maximum pupil diameter (mm): 2.23 mm
  Measurement time of maximum pupil diameter: 2 h
[1]; 2% (w/v) ophthalmic solution group
  Pupil diameter before administration (mm): 0.36 mm
[1]; 2% (w/v) ophthalmic solution
  Maximum pupil diameter (mm): 2.15 mm
  Measurement time of maximum pupil diameter: 1 h
